Measured values published in publication PMC6611794, “Development of a high-throughput strategy for discovery of potent analogues of antibiotic lysocin E” (Nature Communications, 2019).
Converted amounts (≈) assume the structure as drawn. Like-named read-outs stand apart in the source and are kept apart here. Where a SMILES comes first, the peptide text is derived from it. Bridges are numbered along the chain shown (N, C = ends). [ ]: non-standard residue; d: D form. The star is where a group is joined. Hexanoyl(3R-OH,5-Me) = CC(C)C[C@@H](O)CC(=O)*; dNMeF = CN[C@H](Cc1ccccc1)C(=O)O

Experiments:
[1] = system: MRSA; design: method as in PMID 25485686; settings: cited from earlier work
From the text: (§1) Lysocin E (1, Fig. 1a) was isolated from Lysobacter sp. as a new antibiotic and structurally determined to be a 37-membered depsipeptide (molecular weight = 1618 Da) with an N-methylated amide and ester linkages. The macrocyclic core of 12 residues contains four different non-proteinogenic D-amino acids (D-Arg-2/7, N-Me-D-Phe-5, D-Gln-9, D-Trp-10) and is appended with (R)-3-hydroxy-5-methylhexanamide.

[2] = system: Staphylococcus aureus Smith ATCC 13709; type: cell-based
Procedure: (§2) Antimicrobial activity assay of bead-derived peptides. […]
(§3) plate was added DMSO (1 µL/well). […]
(§4) precipitation of the grown cells was examined.
(§5) Evaluation of antimicrobial spectra of peptides. The MIC assay was performed according to the Clinical and Laboratory Standards Institute protocols. The antimicrobial activities of the peptides were measured […]
(§6) Soy Broth or Müller Hinton Broth agar plates. Bacterial inoculum was prepared by direct suspension of the […]
(§7) and incubated at 37 °C for 18 h. […]
(§8) inhibited growth of bacteria.

[3] = design: method as in our previous studies; settings: ref our previous studies, cited from earlier work
From the text: as §1

[4] = system: S. aureus; type: cell-based, Staphylococcus aureus; settings: 18 h
Procedure: as §2, §3, §4, §5, §6, §7, §8

[5] = system: S. aureus; design: method as in PMID 25485686; settings: S. aureus-infected mice; cited from earlier work
From the text: as §1, with “(R)-3-hydroxy-5-methylhexanamide. […] Screening of the additives ind ...” for “(R)-3-hydroxy-5-methylhexanamide.”

[6] = system: Staphylococcus aureus RN4220
Procedure: ×105 colony forming units (CFU) , 21 g/L Müller Hinton Broth (Difco), 5 0 mg/L Ca2+ (adjusted with CaCl2• 2H2O), and 25 mg/L Mg 2+ (adjusted with MgCl 2•6H2O)]. […]
Evaluation of antimicrobial spectra of peptides. The MIC assay was performed according to the Clinical and Laboratory Standards Institute protocols. The antimicrobial activities of the peptides were measured using the broth microdilution method.1 Serial dilutions of peptides were prepared in cation adjusted Müller Hinton Broth. Each dilution (100 µL) was dispensed to each well of the round-bottom plate to obtain final concentrations ranging from 64 µg/m L to 0.0075 µg/m L. Bacteria were grown at 37 °C overnight on Tryptic Soy Broth or Müller Hinton Broth agar plates. Bacterial inoculum was prepared by direct suspension of the colonies in 0.9% saline, and adjusted to obtain OD 625 0.08–0.13 using a spectrophotometer UV -1280 (Shimadzu). The resultant suspension was diluted with cation adjusted Müller Hinton Broth (1/20). The resultant mixture (10 µL) was inoculated to each well of the plates (approximately 5 ×10^4 CFU/well ), mixed, and incubated at 37 °C for 18 h. The MIC value was determined as the minimum concentration that inhibited growth of bacteria. To evaluate the antimicrobial activities of peptides in the presence of serum, 10% bovine calf serum in cation adjusted Müller Hinton Broth was used.

[7] = system: Listeria monocytogenes 10403S; type: cell-based; settings: 18 h
Procedure: as §2, §3, §4, §5, §6, §7, §8

[8] = system: Bacillus cereus JCM20037; type: cell-based; settings: JCM20037, 18 h
Procedure: as §2, §3, §4, §5, §6, §7, §8

[9] = system: Bacillus subtilis JCM2499; type: cell-based; settings: JCM2499, 18 h
Procedure: as §2, §3, §4, §5, §6, §7, §8

Compound: CC[C@H](C)[C@@H]1NC(=O)[C@@H](Cc2c[nH]c3ccccc23)NC(=O)[C@@H](CCC(N)=O)NC(=O)[C@H](CCC(=O)O)NC(=O)[C@@H](CCCNC(=N)N)NC(=O)[C@H](CC(C)C)NC(=O)[C@@H](Cc2ccccc2)N(C)C(=O)CNC(=O)[C@H](CO)NC(=O)[C@@H](CCCNC(=N)N)NC(=O)[C@@H](NC(=O)C[C@H](O)CC(C)C)[C@@H](C)OC(=O)[C@H]([C@@H](C)O)NC1=O [Peptide 1, Lysocin E] ({Hexanoyl(3R-OH,5-Me)}-T[dR]SG[dNMeF]L[dR]E[dQ][dW]IT; ester 1-C)
- minimum inhibitory concentration (MIC) against MRSA [1]: 4 µg/mL (≈ 2.47 µM)
- decrease of MIC by adding 10% BCS [2]: 64 fold
- MIC ([2]; 10% BCS (+)): 0.0625 µg/mL (≈ 0.0386 µM)
- MIC ([2]; ATCC 13709, 18 h): 2.0 µg/mL (≈ 1.24 µM)
- Kd ([3]; 1:1 complex with MK-4, in vitro): 4.5 µM
- affinity toward ubiquinone-10 ([3]; in vitro): no affinity
- original MIC value against S. aureus [4]: 2 to 4 µg/mL
- ED50 [5]: 0.5 mg/kg
- MIC ([6]; 10% BCS (+)): 0.125 µg/mL (≈ 0.0773 µM)
- MIC ([6]; BCS free): 4.0 µg/mL (≈ 2.47 µM)

Compound: CC(C)C[C@@H](O)CC(=O)N[C@@H]1C(=O)N[C@H](CCCNC(=N)N)C(=O)N[C@@H](C)C(=O)NCC(=O)N(C)[C@H](Cc2ccccc2)C(=O)N[C@@H](CC(C)C)C(=O)N[C@H](CCCNC(=N)N)C(=O)N[C@@H](CCC(=O)O)C(=O)N[C@H](Cc2ccc(O)cc2)C(=O)N[C@H](Cc2c[nH]c3ccccc23)C(=O)N[C@@H](Cc2ccc(O)cc2)C(=O)N[C@@H]([C@@H](C)O)C(=O)O[C@@H]1C [Peptide A15] ({Hexanoyl(3R-OH,5-Me)}-T[dR]AG[dNMeF]L[dR]E[dY][dW]YT; ester 1-C)
- MIC [7]: 64 µg/mL (≈ 37.9 µM)

Compound: CC[C@H](C)[C@@H]1NC(=O)[C@@H](Cc2c[nH]c3ccccc23)NC(=O)[C@@H](Cc2ccc(O)cc2)NC(=O)[C@H](CCC(=O)O)NC(=O)[C@@H](CCCNC(=N)N)NC(=O)[C@H](CC(C)C)NC(=O)[C@@H](Cc2ccccc2)N(C)C(=O)CNC(=O)[C@H](CC(=O)O)NC(=O)[C@@H](CCCNC(=N)N)NC(=O)[C@@H](NC(=O)C[C@H](O)CC(C)C)[C@@H](C)OC(=O)[C@H]([C@@H](C)O)NC1=O [Peptide A17] ({Hexanoyl(3R-OH,5-Me)}-T[dR]DG[dNMeF]L[dR]E[dY][dW]IT; ester 1-C)
- MIC [8]: 16 µg/mL (≈ 9.52 µM)
- MIC [9]: 16 µg/mL (≈ 9.52 µM)
